Experimental data reported in patent US12213480B2, “Biocidal formulation” (For Spills Ltd., priority 2018, dated 2025).

Assays:
Assay in all cases: Suspension test of biocide with or without perlite, 1 minute contact
[1] = tested on: Staphylococcus aureus ATCC 6538
[2] = tested on: Pseudomonas aeruginosa ATCC 15442
[3] = tested on: Aspergillus brasiliensis ATCC 16404

SMILES	R reduction in viability [1]	Vc viable count ([1]; dilution −1, duplicate plates)	Vc viable count ([1]; dilution −2, duplicate plates)	R reduction in viability [2]	Vc viable count ([2]; dilution −1, duplicate plates)	Vc viable count ([2]; dilution −2, duplicate plates)	Vc viable count ([2]; dilution −3, duplicate plates)	R reduction in viability [3]	Vc viable count ([3]; dilution N, duplicate plates)	Vc viable count ([3]; dilution −1, duplicate plates)	Vc viable count ([3]; dilution −2, duplicate plates)	Vc viable count ([3]; dilution −3, duplicate plates)
CC1(C)C(=O)N(Cl)C(=O)N1Br [BDCMH]	1.92 Log 10	>330; >330 cfu	>330; >330 cfu	1.00 Log 10	>330; >330 cfu	>330; >330 cfu	>330; >330 cfu	−0.01 Log 10	>165; >165 cfu	>165; >165 cfu	>165; >165 cfu	>165; >165 cfu
O=c1nc([O-])n(Cl)c(=O)n1Cl.[Na+] [Sodium Dichloroisocyanurate, sodium dichloroisocyanurate]	>6.23 Log 10	–	–	3.71 Log 10	–	–	–	2.84 Log 10	>165; >165 cfu	–	–	–
